According to article PMC8617031, “Development of a BCL-xL and BCL-2 dual degrader with improved anti-leukemic activity,” (Nature Communications, 2021):
Values joined by “and” are separate entries in the source; they are usually repeats but may differ in a detail not shown here. Equal values may be shown once.

Key:
[1] = system: BCL-xL/PROTAC/VCB ternary complex (HiBit-BCL-xL, HaloTag-VHL); assay: NanoBRET intracellular ternary complex formation in 293T cells, BCL-xL; format: cell-based, human; conditions: for NanoBRET ratio (610/450 x1000, background-subtracted), Bcl-xl, Ave / NanoBRET signal (610/450 ratio, background-subtracted), Ave, Bcl-xl: Ave of Read1 and Read2; for NanoBRET ratio (610/450 x1000, background-subtracted), Bcl-xl, Ave / NanoBRET ratio (610/450 x1000, background-subtracted), Bcl-xl, Read1 / NanoBRET ratio (610/450 x1000, background-subtracted), Bcl-xl, Read2: 293T cells, triplicate wells; for NanoBRET signal (610/450 ratio, background-subtracted), Ave, Bcl-xl: per replicate well; for NanoBRET signal (610/450 ratio, background-subtracted), Read1, Bcl-xl / NanoBRET signal (610/450 ratio, background-subtracted), Read2, Bcl-xl: individual replicate wells
Description: (§1) Plasmids HaloTag-VHL (Cat. No. CS1679C155) and CMV HiBit (Cat. No. CS1956B03) were purchased from Promega. HiBit-BCL-xL and HiBit-BCL-2 were constructed previously. The two mutants (HiBit-BCL-xL-K157-only and HiBit-BCL-xL-K-ko) were constructed through Gibson assembly method. The primer pair (5′-[…]-3′ and 5′-[…]c[…]-3′) and the template Flag-BCL-xL-K157-only or Flag-BCL-xL-K-ko (pDL2129)[2] were used to clone the BCL-xL-K157-only-containing and BCL-xL-K-ko-containing fragments, respectively. The primer pair (5′-[…]g[…]-3′ and 5′-[…]-3′) and pBit3.1-N (Cat. No. N2361, Promega) were used to clone the vector-containing fragment. The PCR fragments were assembled using NEBuilder® HiFi DNA Assembly Master Mix (Cat. No. E2621, NEB, Ipswich, MA, USA). DNA sequences in all these plasmids were authenticated by automatic sequencing. […] After 24 h, 2 × 10^4 transfected cells were seeded into white 96-well tissue culture plates in Gibco™ Opti-MEM™ I Reduced Serum Medium, No Phenol Red (Cat. No. 11-058-021, Fisher) containing 4% FBS with or without HaloTag NanoBRET 618 Ligand (Cat. No. PRN1662, Promega) and incubated overnight at 37 °C, 5% CO2. The following day, serial diluted compounds were added into the medium and plates were incubated at 37 °C, 5% CO2, for 6 h. After treatment, NanoBRET Nano-Glo Substrate (cat. no. N1662, Promega) was added into the medium, and the contents were mixed by shaking the plate for 30 s before measuring donor and acceptor signals on Biotek plate reader. Dual-filtered luminescence was collected with a 450/50 nm bandpass filter (donor, NanoBiT-BCL-XL protein or NanoBiT-BCL-2 protein) and a 610-nm longpass filter (acceptor, HaloTag NanoBRET ligand) using an integration time of 0.5 s. mBRET ratios were calculated following the NanoBRET™ Nano-Glo® Detection System (Cat. No. N1662, Promega).

[2] = system: BCL-2/PROTAC/VCB ternary complex (HiBit-BCL-2, HaloTag-VHL); assay: NanoBRET intracellular ternary complex formation in 293T cells, BCL-2; format: cell-based, human; conditions: for NanoBRET ratio (610/450 x1000, background-subtracted), Bcl-2, Ave / NanoBRET signal (610/450 ratio, background-subtracted), Ave, Bcl-2: Ave of Read1 and Read2; for NanoBRET ratio (610/450 x1000, background-subtracted), Bcl-2, Ave / NanoBRET ratio (610/450 x1000, background-subtracted), Bcl-2, Read1 / NanoBRET ratio (610/450 x1000, background-subtracted), Bcl-2, Read2: 293T cells, triplicate wells; for NanoBRET signal (610/450 ratio, background-subtracted), Ave, Bcl-2: per replicate well; for NanoBRET signal (610/450 ratio, background-subtracted), Read1, Bcl-2 / NanoBRET signal (610/450 ratio, background-subtracted), Read2, Bcl-2: individual replicate wells
Description: as §1

Row | Structure (SMILES) | NanoBRET ratio (610/450 x1000, background-subtracted), Bcl-xl, Ave ([1]; 0.333 uM) | NanoBRET ratio (610/450 x1000, background-subtracted), Bcl-xl, Read1 ([1]; 0.333 uM) | NanoBRET ratio (610/450 x1000, background-subtracted), Bcl-xl, Read2 ([1]; 0.333 uM) | NanoBRET ratio (610/450 x1000, background-subtracted), Bcl-xl, Ave ([1]; 1 uM) | NanoBRET ratio (610/450 x1000, background-subtracted), Bcl-xl, Read1 ([1]; 1 uM) | NanoBRET ratio (610/450 x1000, background-subtracted), Bcl-xl, Read2 ([1]; 1 uM) | NanoBRET ratio (610/450 x1000, background-subtracted), Bcl-xl, Ave ([1]; 3 uM) | NanoBRET ratio (610/450 x1000, background-subtracted), Bcl-xl, Read1 ([1]; 3 uM) | NanoBRET ratio (610/450 x1000, background-subtracted), Bcl-xl, Read2 ([1]; 3 uM) | NanoBRET ratio (610/450 x1000, background-subtracted), Bcl-2, Ave ([2]; 0.333 uM) | NanoBRET ratio (610/450 x1000, background-subtracted), Bcl-2, Read1 ([2]; 0.333 uM) | NanoBRET ratio (610/450 x1000, background-subtracted), Bcl-2, Read2 ([2]; 0.333 uM) | NanoBRET ratio (610/450 x1000, background-subtracted), Bcl-2, Ave ([2]; 1 uM) | NanoBRET ratio (610/450 x1000, background-subtracted), Bcl-2, Read1 ([2]; 1 uM) | NanoBRET ratio (610/450 x1000, background-subtracted), Bcl-2, Read2 ([2]; 1 uM) | NanoBRET ratio (610/450 x1000, background-subtracted), Bcl-2, Ave ([2]; 3 uM) | NanoBRET ratio (610/450 x1000, background-subtracted), Bcl-2, Read1 ([2]; 3 uM) | NanoBRET ratio (610/450 x1000, background-subtracted), Bcl-2, Read2 ([2]; 3 uM) | also measured
1 | Cc1ncsc1-c1ccc(C(C)NC(=O)C2CC(O)CN2C(=O)C(NC(=O)CCCC(=O)N2CCN(CC3(C)CCC(c4ccc(Cl)cc4)=C(CN4CCN(c5ccc(C(=O)NS(=O)(=O)c6ccc(NC(CCN7CCOCC7)CSc7ccccc7)c(S(=O)(=O)C(F)(F)F)c6)cc5)CC4)C3)CC2)C(C)(C)C)cc1 (mixture of isomers) [319-C5] | 6.339 and 5.781 and 6.072 | 6.257 and 5.719 and 6.3849 | 6.422 and 5.844 and 5.759 | 5.241 and 6.025 and 7.398 | 5.522 and 5.988 and 7.452 | 4.96 and 6.062 and 7.344 | 5.367 and 5.631 and 6.141 | 5.5804 and 5.686 and 6.375 | 5.154 and 5.575 and 5.907 | 5.628 and 6.032 and 6.002 | 5.8735 and 6.598 and 5.9581 | 5.383 and 5.466 and 6.046 | 7.014 and 6.158 and 6.868 | 6.748 and 6.437 and 7.054 | 7.2789 and 5.879 and 6.683 | 6.77 and 7.133 and 6.868 | 6.63 and 7.268 and 6.8218 | 6.909 and 6.997 and 6.914 | 
2 | Cc1ncsc1-c1ccc(C(C)NC(=O)C2CC(O)CN2C(=O)C(NC(=O)CCCCC(=O)N2CCN(CC3(C)CCC(c4ccc(Cl)cc4)=C(CN4CCN(c5ccc(C(=O)NS(=O)(=O)c6ccc(NC(CCN7CCOCC7)CSc7ccccc7)c(S(=O)(=O)C(F)(F)F)c6)cc5)CC4)C3)CC2)C(C)(C)C)cc1 (mixture of isomers) [319-C6] | 6.174 and 6.1699 and 6.65 | 6.062 and 6.008 and 6.406 | 6.287 and 6.332 and 6.893 | 8.477 and 7.0143 and 7.515 | 8.852 and 7.285 and 8.097 | 8.103 and 6.744 and 6.934 | 8.009 and 9.063 and 8.852 | 8.381 and 8.755 and 9.483 | 7.637 and 9.371 and 8.221 | 6.191 and 6.524 and 6.882 | 6.596 and 6.719 and 7.227 | 5.786 and 6.329 and 6.537 | 6.728 and 7.064 and 7.162 | 6.811 and 7.607 and 7.576 | 6.646 and 6.52 and 6.748 | 8.027 and 7.6 and 7.992 | 8.178 and 7.5868 and 7.751 | 7.877 and 7.613 and 8.232 | 
3 | Cc1ncsc1-c1ccc(C(C)NC(=O)C2CC(O)CN2C(=O)C(NC(=O)CCCCCC(=O)N2CCN(CC3(C)CCC(c4ccc(Cl)cc4)=C(CN4CCN(c5ccc(C(=O)NS(=O)(=O)c6ccc(NC(CCN7CCOCC7)CSc7ccccc7)c(S(=O)(=O)C(F)(F)F)c6)cc5)CC4)C3)CC2)C(C)(C)C)cc1 (mixture of isomers) [319-C7] | 6.383 and 6.41 and 6.027 | 6.118 and 6.864 and 6.2545 | 6.648 and 5.956 and 5.8 | 8.353 and 6.411 and 6.637 | 7.957 and 6.709 and 6.774 | 8.749 and 6.113 and 6.499 | 5.568 and 7.612 and 6.364 | 5.755 and 8.211 and 6.36 | 5.382 and 7.013 and 6.368 | 6.052 and 6.92 and 7.6505 | 5.966 and 6.845 and 7.7752 | 6.137 and 6.996 and 7.5258 | 8.414 and 7.671 and 8.038 | 8.989 and 7.62 and 8.138 | 7.839 and 7.721 and 7.939 | 7.385 and 7.884 and 8.749 | 7.497 and 8.645 and 8.883 | 7.2733 and 7.122 and 8.615 | 
4 | Cc1ncsc1-c1ccc(C(C)NC(=O)C2CC(O)CN2C(=O)C(NC(=O)CCCCCCC(=O)N2CCN(CC3(C)CCC(c4ccc(Cl)cc4)=C(CN4CCN(c5ccc(C(=O)NS(=O)(=O)c6ccc(NC(CCN7CCOCC7)CSc7ccccc7)c(S(=O)(=O)C(F)(F)F)c6)cc5)CC4)C3)CC2)C(C)(C)C)cc1 (mixture of isomers) [319-C8] |  |  |  |  |  |  |  |  |  |  |  |  |  |  |  |  |  |  | NanoBRET signal (610/450 ratio, background-subtracted), Ave, Bcl-xl ([1]; 0.333 uM): 7.726 and 6.163 and 6.736; NanoBRET signal (610/450 ratio, background-subtracted), Read1, Bcl-xl ([1]; 0.333 uM): 7.612 and 5.878 and 6.37; NanoBRET signal (610/450 ratio, background-subtracted), Read2, Bcl-xl ([1]; 0.333 uM): 7.841 and 6.448 and 7.103; NanoBRET signal (610/450 ratio, background-subtracted), Ave, Bcl-xl ([1]; 1 uM): 7.132 and 7.494 and 7.451; NanoBRET signal (610/450 ratio, background-subtracted), Read1, Bcl-xl ([1]; 1 uM): 7.4 and 7.483 and 8.183; NanoBRET signal (610/450 ratio, background-subtracted), Read2, Bcl-xl ([1]; 1 uM): 6.864 and 7.506 and 6.7195; NanoBRET signal (610/450 ratio, background-subtracted), Ave, Bcl-xl ([1]; 3 uM): 8.664 and 8.41 and 8.787; NanoBRET signal (610/450 ratio, background-subtracted), Read1, Bcl-xl ([1]; 3 uM): 9.315 and 7.583 and 8.729; NanoBRET signal (610/450 ratio, background-subtracted), Read2, Bcl-xl ([1]; 3 uM): 8.012 and 9.238 and 8.844; NanoBRET signal (610/450 ratio, background-subtracted), Ave, Bcl-2 ([2]; 0.333 uM): 6.709 and 6.763 and 6.945; NanoBRET signal (610/450 ratio, background-subtracted), Read1, Bcl-2 ([2]; 0.333 uM): 6.876 and 6.829 and 6.839; NanoBRET signal (610/450 ratio, background-subtracted), Read2, Bcl-2 ([2]; 0.333 uM): 6.543 and 6.698 and 7.051; NanoBRET signal (610/450 ratio, background-subtracted), Ave, Bcl-2 ([2]; 1 uM): 8.276 and 7.6621 and 8.376; NanoBRET signal (610/450 ratio, background-subtracted), Read1, Bcl-2 ([2]; 1 uM): 8.792 and 8.054 and 8.836; NanoBRET signal (610/450 ratio, background-subtracted), Read2, Bcl-2 ([2]; 1 uM): 7.759 and 7.2706 and 7.917; NanoBRET signal (610/450 ratio, background-subtracted), Ave, Bcl-2 ([2]; 3 uM): 8.696 and 8.738 and 7.9326; NanoBRET signal (610/450 ratio, background-subtracted), Read1, Bcl-2 ([2]; 3 uM): 8.912 and 9.6864 and 8.129; NanoBRET signal (610/450 ratio, background-subtracted), Read2, Bcl-2 ([2]; 3 uM): 8.48 and 7.79 and 7.737
